According to publication PMC10734620, “A blinded in vitro analysis of the intrinsic immunogenicity of hepatotoxic drugs: implications for preclinical risk assessment” (Toxicological Sciences, 2023):
Read-outs that look alike come from different tables or passages of the source.

Columns and labels:
T-cell clones = assay: Generation and drug-specificity testing of T-cell clones; assay type: cell-based, human; settings: for Overall immunogenicity call in T-cell assays: priming assay and/or T-cell clones; for Detection of drug-responsive T-cell clones / T-cell clones responsive to drug (SI ≥ 2): 3 donors; for Detection of drug-responsive T-cell clones: SI ≥ 2; for Dose-dependent proliferation of drug-responsive T-cell clones: titrated concentrations, 48 h, EBV-transformed B-cells; for T-cell clones responsive to drug (SI ≥ 2): training compounds, maximum of 216 clones per donor
Method: To establish T-cell lines, PBMC from 3 healthy HLA-typed (Table 2) donors were cultured with individual test compounds (at concentrations not associated with inhibition of mitogen-driven PBMC proliferation; see Figure 2 for individual concentrations) for 14 days. Medium was supplemented with IL-2 (50 U/ml; Peprotech, New Jersey) to maintain drug-specific T-cell expansion. T-cell clones were generated from the T-cell lines by serial dilution and repetitive mitogen stimulation ([Schnyder et al., 2000]). T-cells (0.3–3 cells/well) were cultured with irradiated allogenic PBMC (5 × 10^4/well) and PHA-P (1 µg/ml) in IL-2 containing medium. The medium was supplemented with fresh IL-2 on days 6, 9 and every 2 days thereafter. Growing cultures were expanded further with a second round of mitogen stimulation and tested for drug-specific T-cell proliferation on day 28. Cloned T-cells (5 × 10^4/well) were cultured with irradiated autologous EBV-transformed B-cells (1 × 10^4/well) and drug in duplicate wells for 48 h. Wells containing medium served as a negative control. Proliferation was measured by the addition of [^3H]-thymidine followed by scintillation counting. T-cell clones with SI ≥ 2 were considered drug-responsive and expanded using irradiated allogeneic PBMC for dose-response studies and assessment of CD4/8 phenotyping.
Proliferation was measured by the addition of [^3H]-thymidine as described above.
T-cell clones were washed with FACS buffer and CD phenotype determined using flow cytometry. Cells (10 000) were acquired using a FACSCanto II (BD Biosciences) and data analyzed by FACSDiva software.
Figure 6. Generation of training compound (nitroso sulfamethoxazole, vancomycin, and Bandrowski’s base)-specific T-cell clones. PBMC from 3 healthy donors were cultured with training compounds and supplemented with IL-2 (50 U/ml) for 14 days. T-cell clones were generated from the T-cell lines by serial dilution and repetitive mitogen stimulation. T-cells (0.3–3 cells/well) were stimulated with irradiated allogenic PBMC (5 × 10^4/well) and phytohemagglutinin (1 µg/ml). Well growing cultures were subjected to a second round of expansion then tested for drug-specific T-cell proliferation. Proliferation was measured by the addition of ^3H-thymidine followed by scintillation counting. A–C, Initial specificity test for nitroso sulfamethoxazole, vancomycin, and Bandrowski’s base clones. T-cell clones showing stimulation index, SI ≥ 2 were considered drug-responsive and expanded and used in dose-response studies. SI = Drug-induced T-cell proliferation divided by T-cell proliferation in cell culture media. […] T-cell activation was determined using [^3H]-thymidine incorporation.
Figure 7. […] PBMC from 3 healthy donors were cultured with test compounds and supplemented with IL-2 (50 U/ml) for 14 days. T-cell clones were generated from the T-cell lines by serial dilution and repetitive mitogen stimulation. T-cells (0.3–3 cells/well) were stimulated with irradiated allogenic PBMC (5 × 10^4/well) and phytohemagglutinin (1 µg/ml). Well growing cultures were subjected to a second round of expansion then tested for drug-specific T-cell proliferation. Proliferation was measured by the addition of ^3H-thymidine followed by scintillation counting. […] T-cell activation was determined using [^3H]-thymidine incorporation.

PBMC = assay: Inhibition of mitogen-induced (PHA-P) PBMC proliferation; assay type: cell-based, human
Method: Test compounds were provided by GSK to Liverpool as blinded dry powders with a given volume of dimethyl sulfoxide to prepare stock concentrations of 50 mM. Stock concentrations were aliquoted and stored at −80°C until required for experiments. A fresh aliquot was utilized for every experiment. PBMC from 3 healthy donors were used to determine the maximum tolerated concentration of each test compound. PBMC (0.15 × 10^6) were cultured with graded compound concentrations in U-bottomed 96-well plates for 48 h at 37°C, 5% CO2. Phytohemagglutinin (PHA-P; 10 µg/ml) was added to cells for a further 24 h followed by assessment of proliferation through the addition of [^3H]-thymidine (0.5 µCi/well) for the last 16 h. […] The IC50 value was then calculated using 4-parameter logistic curve-fitting model (GraphPad prism 7.0).
Figure 2. Toxicity profiles of training and test compounds. […] PHA-P (10 µg/ml) was added to cells for a further 24 h followed by assessment of proliferation through the addition of [^3H]-thymidine (0.5 µCi/well) for the last 16 h. […] 4-parameter logistic functions were fit to the data and IC50 values were then reported (GraphPad prism 7.0). […] LPB (Liverpool Pharmacology Biobank) represents the unique identifier for PBMC isolated from each consented healthy blood donor for drug safety research. Percentage proliferation for each compound concentration = Proliferation following drug exposure divided by proliferation after cell culture media exposure multiplied by 100.

naïve T-cells = assay: Priming of naïve human T-cells (dendritic cell-T-cell coculture); assay type: cell-based; settings: for Proliferation of primed T-cells restimulated with titrated concentrations: 3 drug concentrations (low, medium, high), 48 h; for Number of donors with naïve T-cell priming: 3 study donors; for Proliferation of primed T-cells, drug- vs medium-restimulated wells: 14 days priming, restimulation 48 h at single concentration, 48 wells, [3H]-thymidine
Method: CD14+ monocytes were positively selected using CD14 antibody-conjugated microbeads. This was followed by the depletion of CD25+ cells from the CD14- population and the negative selection of CD45RA+ naïve T-cells. […] Dendritic cells were generated by culturing monocytes with a cocktail of GM-CSF (800 U/ml) and IL-4 (800 U/ml) in culture media for 6 days. Both cytokines were purchased from Peprotech (New Jersey). A maturation cocktail of TNF-α (25 ng/ml) and LPS (1 µg/ml) was added for 16 h before establishing the T-cell priming culture. Dendritic cells (8 × 10^3 per well) were cultured with naïve T-cells (1 × 10^5 per well) and the test compounds in a 96-well U-bottom tissue culture plate for 14 days at 37°C, 5% CO2. Cells were then washed extensively to remove unbound drug and cultures were restimulated with test compound or medium control (48 wells) for 48 h. Subsequent experiments were performed with training compounds to investigate the dose-dependent stimulation of naïve T-cells. In these experiments, T-cells were cultured with 3 concentrations of the test compound and medium (negative control) during the restimulation step. T-cell proliferative responses were determined by addition of [^3H]-thymidine (0.5 µCi/well) for the final 16 h of the culture period. Plates were harvested and counted as described above. […] Student’s t test was performed to determine statistical significance of T-cell proliferation when comparing medium- and drug-treated cultures (*p ≤ .05; **p ≤ .005; ***p < .001).
Figure 3. Naïve T-cell priming with training compounds. CD14+ monocytes were utilized to generate dendritic cells with a cocktail of GM-CSF (800 U/ml) and IL-4 (800 U/ml) in culture media for 6 days. […] A, Nitroso sulfamethoxazole. B, Vancomycin. C, Bandrowski’s base. D, Carbamazepine. E, Piperacillin. The degree of naïve T-cell priming was determined by comparing the counts per minutes (cpm) of drug and media-treated cultures using a beta counter. Student’s t test was performed to determine statistical significance (*p ≤ .05; **p ≤ .005; ***p < .001). Each data point represents T-cells proliferation in individual well of a 96 U-bottomed plate.
Figure 4. Dose-dependent stimulation of primed T-cells with training compound. […] Primed cells were washed extensively and then restimulated with 3 drug concentrations (low, medium, and high) for 48 h followed by determination of T-cell activation by [^3H]-thymidine incorporation. Each data point represents T-cells proliferation in individual well of a 96 U-bottomed plate.
Figure 5. Naïve T-cell priming with test compounds. […] B, Dacarbazine. […] F, Iproniazid. G, Mepivacaine. H, Nevirapine. […] J, Phenoxybenzamine. Primed cells were washed extensively and then restimulated medium or drug for 48 h followed by determination of T-cell activation by [^3H]-thymidine incorporation. Each data point represents T-cells proliferation in individual well of a 96 U-bottomed plate.

[1] = design: method as in Sakatis et al., 2012; Schofield et al., 2021; settings: Positive = above the threshold of concern; assays not listed negative; ref Sakatis et al., 2012; Schofield et al., 2021; cited from earlier work
[2] = design: method as in FDA DILIrank datasets; settings: ref FDA DILIrank datasets; cited from earlier work
[3] = Homo sapiens, PBMC, PBMC from 3 healthy donors, compound 48 h, then PHA-P 10 µg/ml 24 h, [3H]-thymidine, read-out: IC50, inhibition of mitogen-driven PBMC proliferation
[4] = PBMC from 3 healthy donors, compound 48 h, then PHA-P 10 µg/ml 24 h, [3H]-thymidine, read-out: IC50, inhibition of mitogen-driven PBMC proliferation

Row | Compound | Overall immunogenicity call in T-cell assays (T-cell clones) | Proliferation of primed T-cells restimulated with titrated concentrations (naïve T-cells) | Number of donors with naïve T-cell priming (naïve T-cells) | Proliferation of primed T-cells, drug- vs medium-restimulated wells (naïve T-cells) | Detection of drug-responsive T-cell clones (T-cell clones) | Dose-dependent proliferation of drug-responsive T-cell clones (T-cell clones) | T-cell clones responsive to drug (SI ≥ 2) (T-cell clones) | IC50 (PBMC; [4]) | further results
1 | CN(C)CCOC(c1ccccc1)c1ccccc1 [Diphenhydramine] | no false positives |  |  |  |  |  |  |  | 
2 | CN[C@H](CC(C)C)C(=O)N[C@H]1C(=O)N[C@@H](CC(N)=O)C(=O)N[C@H]2C(=O)N[C@H]3C(=O)N[C@H](C(=O)N[C@H](C(=O)O)c4cc(O)cc(O)c4-c4cc3ccc4O)[C@H](O)c3ccc(c(Cl)c3)Oc3cc2cc(c3O[C@@H]2O[C@H](CO)[C@@H](O)[C@H](O)[C@H]2O[C@H]2C[C@](C)(N)[C@H](O)[C@H](C)O2)Oc2ccc(cc2Cl)[C@H]1O [Vancomycin] |  | stimulated to proliferate in the presence of all 3 concentrations | 3 | Proliferation of primed T-cells was observed | detected from each donor | proliferate in a dose-dependent manner | 9.7% |  | IC50 (PBMC; Homo sapiens, PBMC, read-out: IC50, inhibition of mitogen-driven PBMC proliferation): 2000 µM
3 | CCN1CCN(C(=O)N[C@@H](C(=O)N[C@@H]2C(=O)N3[C@@H]2SC(C)(C)[C@@H]3C(=O)O)c2ccccc2)C(=O)C1=O [Piperacillin] |  | not detected |  | not observed | not detected |  |  |  | IC50 (PBMC; [3]): 1000 µM
4 | NC(=O)N1c2ccccc2C=Cc2ccccc21 [Carbamazepine] |  |  | 1 | not observed | not detected |  |  | 260 µM | IC50 (PBMC; PBMC from 3 healthy donors, compound 48 h, then PHA-P 10 µg/ml 24 h, [3H]-thymidine, listed as carbamazepine, read-out: IC50, inhibition of mitogen-driven PBMC proliferation): ≥ 50 µM; Proliferation of primed T-cells on restimulation at highest concentration (naïve T-cells; restimulated at 200 µM): weakly significant proliferative response
5 | CC[C@H]1OC(=O)[C@H](C)[C@@H](O[C@H]2C[C@@](C)(OC)[C@@H](O)[C@H](C)O2)[C@H](C)[C@@H](O[C@@H]2O[C@H](C)C[C@H](N(C)C)[C@H]2O)[C@](C)(O)C[C@@H](C)C(=O)[C@H](C)[C@@H](O)[C@]1(C)O [Erythromycin] | potentially immunogenic |  |  |  |  | dose-dependent proliferative responses |  | 160 µM | IC50 (PBMC; PBMC from 3 healthy donors, compound 48 h, then PHA-P 10 µg/ml 24 h, [3H]-thymidine, listed as erythromycin, read-out: IC50, inhibition of mitogen-driven PBMC proliferation): ≥ 50 µM; Number of drug-responsive T-cell clones (T-cell clones; donor 2): 3; T-cell clones stimulated to proliferate, donor 2 (T-cell clones; donor 2, maximum of 144 clones per donor): 2%; Detection of drug-responsive T-cell clones, other donors (T-cell clones; donors other than donor 2): not detected; CD phenotype of drug-responsive T-cell clones (T-cell clones; flow cytometry CD4/CD8): CD4+; Routine Assays that are Positive (GSK) [1]: Reactive metabolite
6 | CC(COc1ccccc1)N(CCCl)Cc1ccccc1 (centres unmarked) [Phenoxybenzamine] | no false positives |  |  |  |  |  |  |  | IC50 (PBMC; Homo sapiens, PBMC, read-out: IC50, inhibition of mitogen-driven PBMC proliferation, PBMC from 3 healthy donors, compound 48 h, then PHA-P 10 µg/ml 24 h, [3H]-thymidine): 15 µM; IC50 (PBMC; read-out: IC50, inhibition of mitogen-driven PBMC proliferation, PBMC from 3 healthy donors, compound 48 h, then PHA-P 10 µg/ml 24 h, [3H]-thymidine): ≤ 20 µM; Routine Assays that are Positive (GSK) [1]: Reactive metabolite; FDA Clinical Hepatotoxicity Concern [2]: No
7 | NC1=CC(=N\c2ccc(N)cc2)/C(N)=CC/1=N/c1ccc(N)cc1 [Bandrowski's base] |  | stimulated to proliferate in the presence of all 3 concentrations | 3 | Proliferation of primed T-cells was observed | detected from each donor | proliferate in a dose-dependent manner | 13% |  | IC50 (PBMC; [3]): 5 µM
8 | Cc1cc(NS(=O)(=O)c2ccc(N=O)cc2)no1 [Nitroso sulfamethoxazole, 4-Nitrososulfamethoxazole] |  | stimulated to proliferate in the presence of all 3 concentrations | 3 | Proliferation of primed T-cells was observed | detected from each donor | proliferate in a dose-dependent manner | 10.0% | 250 µM | IC50 (PBMC; PBMC from 3 healthy donors, compound 48 h, then PHA-P 10 µg/ml 24 h, [3H]-thymidine, listed as nitroso sulfamethoxazole, read-out: IC50, inhibition of mitogen-driven PBMC proliferation): ≥ 50 µM
